According to patent US20250381165A1, “Method of Use for Benzofuran Compounds” (Tampa Bay Research Institute, Inc., priority 2024, published 2025):

Tests used:
[1] = tested on: DC2.4 cells presenting SIINFEKL to B3Z CD8+ T cell hybridoma; assay: B3Z activation by SIINFEKL-pulsed DC2.4 (CPRG β-gal assay); type: cell-based, murine
Procedure: DC2.4 cells (2.5×10^4 cells/well) were seeded at 100 μL/well in 96 well tissue culture white sided/white bottom plate and incubated overnight to allow for cell adherence. 37° C. in an atmosphere containing 5% CO2 and 95% humidity. Following pre-treatment of the DC2.4 cells (1-24 h) with escalating doses of the test molecules, the cells were washed, pulsed with 0.5 nM of the MHC class I H-2Kb peptide, SIINFEKL, for 1 h, and then co-cultured with the CD8+ T cell hybridoma, B3Z.
The level of B3Z cell activation and the effects of the various test molecules on B3Z activation were quantified in cell lysates using the β-gal chromogenic substrate, CPRG. The media was removed and 100 μL of 250 μM CPRG reconstituted in the lysis buffer (1×DPBS, 0.2% v/v saponin, 20 mM magnesium chloride) was added directly to each well. Cells were maintained at 37° C. prior to measurement. The absorbance at 560 nm (700 nm for background) was intermittently monitored using a BioTek Synergy HTX multimode microplate reader (Winooski, VT) to detect β-gal activity. CPRG lysis buffer and B3Z cells only served as the negative controls. All treatments were performed in triplicate and all experiments were repeated a minimum of three times.
Activation of B3Z T cell hybridoma cells was assessed following their exposure to various MHC class I H-2K^b positive cell lines presenting the SIINFEKL peptide. B3Z are a CD8+ SIINFEKL peptide specific T-cell hybridoma expressing a beta-galactosidase (β-gal) reporter gene driven by NF-AT elements on the interleukin 2 (IL-2) promoter. […] Activation of B3Z leads to production of β-gal whose presence can be quantified using the optimized detection assay described by Jendresen et al. (Jendresen, et al., An improved CPRG colorimetric ligand-receptor signal transduction assay based on beta-galactosidase activity in mammalian BWZ-reporter cells. J Pharmacol Toxicol Methods. 2018 March-April; 90:67-75).
To stimulate β-gal production in the B3Z, the H-2Kb murine cell lines, DC2.4, B16F10, and E.G7-OVA, or freshly isolated murine splenocytes, were plated at a density of 2.5 or 5×10^4 cells/well (100 μL/well in 96 well plates) and cultured overnight at 37° C. in an atmosphere containing 5% CO2 and 95% humidity. The cells were washed with DPBS and then treated for 1-24 h with the indicated concentrations of BzFβ suspended in complete media. Vehicle controls were always included. […]
To detect activation of the B3Z cells, the media was removed and 100 μL of 250 µM CPRG reconstituted in the lysis buffer (1×DPBS, 0.2% v/v saponin, 20 mM magnesium chloride) was added directly to each well. […] The absorbance at 560 nm (700 nm for background) was intermittently monitored using a BioTek Synergy HTX multimode microplate reader (Winooski, VT) to detect β-gal activity. […]

[2] = tested on: E.G7-OVA cells (B3Z activation); assay: B3Z activation by E.G7-OVA cells; type: cell-based, murine
Procedure: Activation of B3Z T cell hybridoma cells was assessed following their exposure to various MHC class I H-2K^b positive cell lines presenting the SIINFEKL peptide. To stimulate β-gal production in the B3Z, the H-2Kb murine cell lines, DC2.4 and E.G7-OVA were plated at a density of 2.5 or 5×10^4 cells/well (100 μL/well in 96 well plates) and cultured overnight at 37° C. in an atmosphere containing 5% CO2 and 95% humidity. The cells were washed with DPBS and then treated for 1-24 h with the indicated concentrations of BzFβ suspended in complete media. Vehicle controls were always included. Cells being examined for the uptake and processing of soluble OVA were co-treated with BzFβ and 0.5 mg/mL grade V chicken ovalbumin for 6-24 h, and then washed and cocultured with B3Z as indicated.
Following the pretreatment with BzFβ, the media was removed from adherent cells (DC2.4 or B16F10) or was removed following pelleting of nonadherent cells in the plate. The cells were then pulsed with various concentrations of SIINFEKL peptide (typically 0.5 nM was used) for the indicated lengths of time (typically 1 h). The cells were washed and then 100 μL of complete DMEM containing 5×10^4 B3Z cells was added. […] The absorbance at 560 nm (700 nm for background) was intermittently monitored using a BioTek Synergy HTX multimode microplate reader (Winooski, VT) to detect β-gal activity. […]

## O=C(O)/C=C/c1ccc2occc2c1 [BzFβ, (2E)-3-(1-benzofuran-5-yl)prop-2-enoic acid]
[1]; co-treatment 1 h, 25 μg/mL BzFβ, 15 pM to 1 nM SIINFEKL, 19 h coculture
  B3Z response versus peptide pulsed DC2.4 alone: significantly greater
[1]; peptide pulsed DC2.4
  time to significantly enhanced B3Z activation: 5 min
[2]; 0-100 μg/mL BzFβ
  ability of E.G7-OVA cells to activate B3Z: dose-dependently reduced
[2]; E.G7-OVA, B3Z assay
  lowest dose with significant effect: 6.25 µg/mL
